From US8318707B2 (priority 2006, dated 2012)

Experiments:
[1] = system: mixed neural culture of hippocampus cells exposed to kainate; format: cell-based, rat
[2] = system: organotypical slices of rat hippocampus (CA3 region); assay: in vitro complex excitotoxicity model: organotypical rat hippocampus culture exposed to kainate; conditions: 20 μM, 24 hours
[3] = system: permanent focal ischemia (occlusion of the middle cerebral artery); assay: in vivo permanent focal ischemia model in mice (MCAo), lesion volume by TTC colouring

Structure (SMILES) | amount necessary compared with (S)-roscovitine to prevent the death of the same number of neurones [1] | neuronal death percentage (RND) [1] | toxic effect on organotypical rat hippocampus cultures [2] | reduction in the size of the penumbra zone compared with the control ([3]; ICV, 500 μM, 3 hours after occlusion) | volume of the necrotic core ([3]; ICV, 500 μM, 3 hours after occlusion (control 6.06 mm3)) | volume of the penumbra zone ([3]; ICV, 500 μM, 3 hours after occlusion (control 12.68 mm3)) | total volume of the lesion ([3]; ICV, 500 μM, 3 hours after occlusion (control 18.74 mm3)) | reduction in the total volume of the lesion compared with the control ([3]; intracerebroventricular (ICV), 500 μM by osmotic micropump from 48 hours before MCAo, 3 hours after occlusion) | reduction in the size of the penumbra compared with the control ([3]; systemic (PI), 25 mg/kg intraperitoneal x2, 3 hours after occlusion) | volume of the necrotic core ([3]; systemic (PI), 25 mg/kg intraperitoneal x2, 3 hours after occlusion (control 5.03 mm3)) | volume of the penumbra zone ([3]; systemic (PI), 25 mg/kg intraperitoneal x2, 3 hours after occlusion (control 15.31 mm3)) | total volume of the lesion ([3]; systemic (PI), 25 mg/kg intraperitoneal x2, 3 hours after occlusion (control 20.34 mm3)) | reduction in the total volume of the lesion compared with the control ([3]; systemic (PI), 25 mg/kg, 2 intraperitoneal injections 15 minutes before and 1 hour after MCAo, 3 hours after occlusion) | neurones prevented from death compared with (R)-roscovitine [1]
CC[C@H](CO)Nc1nc(NCc2ccccc2)c2ncn(C(C)C)c2n1 [(R)-roscovitine] | Three times more | 62% | – | – | – | – | – | – | – | – | – | – | – | –
CC[C@@H](CO)Nc1nc(NCc2ccccc2)c2ncn(C(C)C)c2n1 [(S)-roscovitine] | – | – | absence of toxic effect | 35.8% | 5.39 mm3 | 8.14 mm3 | 13.54 mm3 | 27.7% | 38.9% | 4.88 mm3 | 9.22 mm3 | 14.10 mm3 | 30.7% | twice as many
